Source: patent publication US8912180B2, “Heterocyclic compound” (Astellas Pharma Inc., priority 2010, dated 2014)
Where a name gives a salt, the structure may show the parent alone.

What was measured:
Human PI3Kα = biological target: T1, Human PI3Kα (Homo sapiens, UniProt P42336); test: PI3Kα enzyme inhibitory activity (Kinase-Glo Plus luminescence); format: biochemical; details: human PI3Kα 12 ng/well, phosphatidylinositol 0.2 μg/well, 37° C. 3 hours
T1 construct: purchased Millipore Corporation 14-602
T1 sequence (P42336 whole entry): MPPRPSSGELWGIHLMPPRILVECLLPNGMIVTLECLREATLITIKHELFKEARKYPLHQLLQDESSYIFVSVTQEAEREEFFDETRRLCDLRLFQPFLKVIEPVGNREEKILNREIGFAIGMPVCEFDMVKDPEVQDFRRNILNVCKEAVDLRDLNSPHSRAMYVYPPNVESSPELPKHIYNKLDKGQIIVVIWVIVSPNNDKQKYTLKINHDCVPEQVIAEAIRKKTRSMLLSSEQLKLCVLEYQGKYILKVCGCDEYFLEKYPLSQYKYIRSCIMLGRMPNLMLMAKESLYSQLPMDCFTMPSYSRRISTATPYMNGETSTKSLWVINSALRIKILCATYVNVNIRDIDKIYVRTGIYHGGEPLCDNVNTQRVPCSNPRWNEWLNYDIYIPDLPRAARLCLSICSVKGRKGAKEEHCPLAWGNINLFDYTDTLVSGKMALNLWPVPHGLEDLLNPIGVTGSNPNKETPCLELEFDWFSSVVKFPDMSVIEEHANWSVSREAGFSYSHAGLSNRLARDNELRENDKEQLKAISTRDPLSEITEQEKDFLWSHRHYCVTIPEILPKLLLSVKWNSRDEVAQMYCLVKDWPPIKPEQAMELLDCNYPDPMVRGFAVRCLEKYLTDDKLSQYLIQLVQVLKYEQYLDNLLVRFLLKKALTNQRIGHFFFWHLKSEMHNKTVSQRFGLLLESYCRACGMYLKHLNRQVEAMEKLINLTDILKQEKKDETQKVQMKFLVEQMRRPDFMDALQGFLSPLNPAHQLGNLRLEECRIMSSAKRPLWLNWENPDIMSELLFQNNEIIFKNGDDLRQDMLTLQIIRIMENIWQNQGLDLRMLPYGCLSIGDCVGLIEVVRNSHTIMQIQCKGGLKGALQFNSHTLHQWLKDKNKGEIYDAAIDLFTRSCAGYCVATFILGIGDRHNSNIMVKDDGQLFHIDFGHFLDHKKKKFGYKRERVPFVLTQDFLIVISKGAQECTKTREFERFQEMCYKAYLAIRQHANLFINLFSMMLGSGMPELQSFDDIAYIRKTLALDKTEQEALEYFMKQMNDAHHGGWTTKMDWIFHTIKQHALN
T1 sequence (P27986 whole entry partner): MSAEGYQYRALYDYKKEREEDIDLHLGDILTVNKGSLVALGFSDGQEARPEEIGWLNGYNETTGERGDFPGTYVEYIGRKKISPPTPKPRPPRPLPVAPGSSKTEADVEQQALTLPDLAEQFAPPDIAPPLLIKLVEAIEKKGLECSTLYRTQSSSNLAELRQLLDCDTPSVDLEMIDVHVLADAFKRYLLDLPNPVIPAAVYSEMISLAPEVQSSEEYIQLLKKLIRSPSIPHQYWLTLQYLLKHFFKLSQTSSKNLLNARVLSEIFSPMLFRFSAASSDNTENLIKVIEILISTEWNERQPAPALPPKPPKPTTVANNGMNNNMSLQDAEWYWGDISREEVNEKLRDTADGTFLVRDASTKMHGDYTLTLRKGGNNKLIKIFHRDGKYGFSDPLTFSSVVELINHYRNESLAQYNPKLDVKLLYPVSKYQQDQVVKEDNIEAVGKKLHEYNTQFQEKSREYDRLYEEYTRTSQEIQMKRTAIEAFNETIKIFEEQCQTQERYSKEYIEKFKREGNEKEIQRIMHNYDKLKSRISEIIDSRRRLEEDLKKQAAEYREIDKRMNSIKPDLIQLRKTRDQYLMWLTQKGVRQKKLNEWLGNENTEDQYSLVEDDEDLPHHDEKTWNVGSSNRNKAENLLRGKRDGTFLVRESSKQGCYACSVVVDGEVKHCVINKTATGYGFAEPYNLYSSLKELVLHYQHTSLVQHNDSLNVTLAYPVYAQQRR
Experimental: 2. PI3Kα Enzyme Inhibitory Activity
Human PI3Kα (12 ng/well, Millipore Corporation, Catalogue No. 14-602), phosphatidylinositol (0.2 μg/well), and the test compound were mixed in a 384-well plate in a reaction buffer (50 mM Hepes, 10 mM NaCl, 10 mM MgCl2, 2 mM EGTA, 2 mM DTT, pH 7.3) (total 10 μl), and incubated at 37° C. for 3 hours. After the reaction, 10 μL of a Kinase-Glo Plus reagent (Promega, Catalogue No. V3772) was added thereto, and a luminescence was measured with a luminometer.

human PI3Kδ enzyme = biological target: T2, human PI3Kδ enzyme (Homo sapiens, UniProt O00329); test: PI3Kδ enzyme inhibitory activity (PI3-Kinase HTRF Assay kit); format: biochemical; details: human PI3Kδ 10 ng/well, ATP 30 μM, PIP2 10 μM, room temperature 30 minutes
T2 construct: purchased Millipore Corporation 14-604
T2 sequence (O00329 whole entry): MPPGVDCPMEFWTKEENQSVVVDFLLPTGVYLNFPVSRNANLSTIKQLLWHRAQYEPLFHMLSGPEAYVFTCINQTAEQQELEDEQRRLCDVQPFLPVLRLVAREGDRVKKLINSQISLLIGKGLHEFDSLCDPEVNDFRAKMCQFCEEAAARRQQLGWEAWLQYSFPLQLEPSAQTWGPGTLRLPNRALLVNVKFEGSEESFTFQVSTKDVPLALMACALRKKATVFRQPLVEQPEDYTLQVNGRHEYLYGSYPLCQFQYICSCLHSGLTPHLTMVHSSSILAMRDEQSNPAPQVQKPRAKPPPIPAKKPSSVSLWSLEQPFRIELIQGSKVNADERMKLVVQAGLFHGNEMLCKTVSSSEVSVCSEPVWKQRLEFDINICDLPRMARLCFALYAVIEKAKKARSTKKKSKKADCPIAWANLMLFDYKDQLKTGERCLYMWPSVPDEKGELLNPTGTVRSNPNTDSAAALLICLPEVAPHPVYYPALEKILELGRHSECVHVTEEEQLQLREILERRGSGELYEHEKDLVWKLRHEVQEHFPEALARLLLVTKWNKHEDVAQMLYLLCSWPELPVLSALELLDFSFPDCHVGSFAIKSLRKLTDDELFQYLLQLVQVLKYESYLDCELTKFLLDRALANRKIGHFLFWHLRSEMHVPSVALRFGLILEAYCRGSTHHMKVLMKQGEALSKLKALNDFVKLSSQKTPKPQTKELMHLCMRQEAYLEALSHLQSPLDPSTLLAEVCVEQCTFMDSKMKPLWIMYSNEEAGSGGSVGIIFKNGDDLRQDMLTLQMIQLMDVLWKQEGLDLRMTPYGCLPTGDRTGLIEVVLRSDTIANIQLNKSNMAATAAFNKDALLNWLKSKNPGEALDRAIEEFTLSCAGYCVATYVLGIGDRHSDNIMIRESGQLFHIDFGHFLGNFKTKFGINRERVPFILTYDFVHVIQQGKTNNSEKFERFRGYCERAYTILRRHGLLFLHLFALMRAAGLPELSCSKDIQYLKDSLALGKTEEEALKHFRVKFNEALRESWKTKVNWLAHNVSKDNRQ
T2 sequence (P27986 whole entry partner): as the sequence (P27986 whole entry partner) above
Experimental: 1. PI3Kδ Enzyme Inhibitory Activity
For the experiment, a PI3-Kinase HTRF Assay kit (Millipore Corporation, Catalogue No. 33-016) and a human PI3Kδ enzyme (Millipore Corporation, Catalogue No. 14-604) were used. The measurement method was in accordance with the appended instructions. The overview thereof is as follows.
PI3Kδ (10 ng/well), phosphatidylinositol-4,5-bisphosphate (10 μM), ATP (30 μM), and the test compound were mixed in a 384-well plate (total 20 μL), and incubated at room temperature for 30 minutes. EDTA and biotinylated phosphatidylinositol-3,4,5-triphosphate were added thereto to stop the reaction. Thereafter, a Europium labeled anti-GST antibody, a GST bond GRP1 PH domain, and streptavidin-APC were added thereto, followed by incubation overnight. An HTRF ratio was measured using an HTRF plate reader.

[1] = tested on: Spleen cells prepared from male LEW/CrlCrlj rats (B cell proliferation); test: Rat B cell proliferation inhibition test (anti-rat IgM, [3H]thymidine); format: cell-based; details: anti-rat IgM 3 μg/well, 48 hours culture
Experimental: 4. Rat B Cell Proliferation Inhibition Test
Spleen cells (1.0×10^5 cells/well) prepared from male LEW/CrlCrlj rats (Charles River Laboratories, Japan, Inc.), mouse F(ab′)2 fragment anti-rat IgM (3 μg/well, SouthernBiotech Associates, Inc., Catalogue No. 3082-14) and the test compound dissolved in DMSO (final DMSO concentration 0.1%) were mixed in a 96-well plate using a 10% FCS-containing RPMI-1640 culture medium (total 200 μL). They were cultured in a CO2 incubator for 48 hours and [^3H]thymidine (925 GBq/mmol, Moravek Biochemicals, Inc., Catalogue No. MT6038) was added thereto at 0.037 MBq/well at 4 hours before completion of culture. Cells were harvested in a GF/C glass filter using a cell harvester, and a radioactivity on the filter was measured using a liquid scintillation counter.

Row | Compound | IC50 (Human PI3Kα) | IC50 (human PI3Kδ enzyme) | IC50 [1]
1 | O=C([C@H]1CCCO1)N1CC[C@H](Nc2cc(-n3c(C(F)F)nc4ccccc43)nc(N3CCOCC3)n2)C1 [A290] | 3800 nM | 7.4 nM | 2.2 nM
2 | O=C(C1CCOCC1)N1CC[C@H](Nc2cc(-n3c(C(F)F)nc4ccccc43)nc(N3CCOCC3)n2)C1 [A293] | 3200 nM | 19 nM | 2.6 nM
3 | COC(=O)N1CCC(C(=O)N2CC[C@H](Nc3cc(-n4c(C(F)F)nc5ccccc54)nc(N4CCOCC4)n3)C2)CC1 [A298] | 3500 nM | 28 nM | 1.2 nM
4 | O=C(CC1CCCO1)N1CC[C@H](Nc2cc(-n3c(C(F)F)nc4ccccc43)nc(N3CCOCC3)n2)C1 (stereo partly drawn) [A299] | 4900 nM | 25 nM | 2.5 nM
5 | O=C(CC1CCOCC1)N1CC[C@H](Nc2cc(-n3c(C(F)F)nc4ccccc43)nc(N3CCOCC3)n2)C1 [A300] | 6500 nM | 26 nM | 2.6 nM
6 | O=C(C1CCOC1)N1CC[C@H](Oc2cc(-n3c(C(F)F)nc4ccccc43)nc(N3CCOCC3)n2)C1 (stereo partly drawn) [A449] | 1400 nM | 20 nM | 0.4 nM
7 | CN1CC(C(=O)N2CC[C@H](Oc3cc(-n4c(C(F)F)nc5ccccc54)nc(N4CCOCC4)n3)C2)CC1=O (stereo partly drawn) [A451] | 2200 nM | 35 nM | 1.2 nM
8 | CC(=O)N1CCC(CC(=O)N2CC[C@H](Nc3cc(-n4c(C(F)F)nc5ccccc54)nc(N4CCOCC4)n3)C2)CC1 [A463] | 3100 nM | 27 nM | 1.4 nM
9 | O=C(C1CCOC1)N1CC[C@H](Nc2cc(-n3c(C(F)F)nc4ccccc43)nc(N3CCOCC3)n2)C1 (stereo partly drawn) [A464] | 2200 nM | 10 nM | –
10 | CN1CC(C(=O)N2CC[C@H](Nc3cc(-n4c(C(F)F)nc5ccccc54)nc(N4CCOCC4)n3)C2)CC1=O (stereo partly drawn) [A466] | 2000 nM | 15 nM | 1.8 nM
11 | O=C(CN1CCCCC1)N1CC[C@H](Nc2cc(-n3c(C(F)F)nc4ccccc43)nc(N3CCOCC3)n2)C1 [A475] | 1400 nM | 25 nM | 1.1 nM
12 | O=C1CC[C@@H](C(=O)N2CC(Nc3cc(-n4c(C(F)F)nc5ccccc54)nc(N4CCOCC4)n3)C2)N1 [A562] | 2900 nM | 14 nM | 3.9 nM
13 | CC(=O)N1CCC(CC(=O)N2CC(Nc3cc(-n4c(C(F)F)nc5ccccc54)nc(N4CCOCC4)n3)C2)CC1 [A564] | – | 19 nM | 2.2 nM
14 | CC(C)(C)OC(=O)N1CC[C@H](Nc2nc(N3CCOCC3)cc(-n3c(C(F)F)nc4ccccc43)n2)C1 [Example 1, tert-butyl (3S)-3-({4-[2-(difluoromethyl)-1H-benzimidazol-1-yl]-6-morpholin-4-ylpyrimidin-2-yl}amino)pyrrolidine-1-carboxylate] | 2800 nM | 29 nM | –
15 | CN1CCC(CNc2cc(-n3c(C(F)F)nc4ccccc43)nc(N3CCOCC3)n2)CC1 [Example 4] | > 3000 nM | 60 nM | –
16 | C[C@H]1COCCN1c1cc(-n2c(C(F)F)nc3ccccc32)nc(NCC2CCN(C(=O)OC(C)(C)C)CC2)n1 [Example 13] | 980 nM | 36 nM | –
17 | CC(C)(C)OC(=O)N1CCC(CNc2nc(N3CCOC[C@@H]3CF)cc(-n3c(C(F)F)nc4ccccc43)n2)CC1 [Example 16] | > 10000 nM | 69 nM | –
18 | CC(C)(C)OC(=O)N1CCC[C@H](CNc2nc(N3CCOCC3)cc(-n3c(C(F)F)nc4ccccc43)n2)C1 [Example 18] | 7700 nM | 50 nM | –
19 | C[C@H]1COCCN1c1cc(-n2c(C(F)F)nc3ccccc32)nc(NC[C@H]2CCCN(C(=O)OC(C)(C)C)C2)n1 [Example 20] | 1800 nM | 19 nM | –
20 | FC(F)c1nc2ccccc2n1-c1cc(N2CCOCC2)nc(NCCC2CCN(Cc3ccccc3)CC2)n1 [Example 25] | 6200 nM | 69 nM | –
21 | OC1CCC(N2CCC(CNc3nc(N4CCOCC4)cc(-n4c(C(F)F)nc5ccccc54)n3)CC2)CC1 (stereo not drawn) [Example 28] | > 3000 nM | 35 nM | –

Row | Compound | IC50 (Human PI3Kα) | IC50 (human PI3Kδ enzyme) | IC50 [1]
22 | CC(C)(C)OC(=O)N1CCC(N2CCC(CNc3nc(N4CCOCC4)cc(-n4c(C(F)F)nc5ccccc54)n3)CC2)CC1 [Example 30] | > 3000 nM | 12 nM | –
23 | FCC(CF)N1CCC(CNc2nc(N3CCOCC3)cc(-n3c(C(F)F)nc4ccccc43)n2)CC1 [Example 35] | 4200 nM | 18 nM | –
24 | FC(F)c1nc2ccccc2n1-c1cc(N2CCOCC2)nc(NCC2CCN(C3CCC(F)(F)CC3)CC2)n1 [Example 36] | 6700 nM | 17 nM | 6.8 nM
25 | C[C@H]1COCCN1c1cc(-n2c(C(F)F)nc3ccccc32)nc(NCC2CCN(C3CCOCC3)CC2)n1 [Example 38] | 2200 nM | 23 nM | 2.9 nM
26 | FC(F)c1nc2ccccc2n1-c1cc(N2CCOCC2)nc(NCC2CCN(CC3CCOCC3)CC2)n1 [Example 39] | 3900 nM | 27 nM | –
27 | FC(F)c1nc2ccccc2n1-c1cc(OCC2CCN(C3CCOCC3)CC2)nc(N2CCOCC2)n1 [Example 40] | > 10000 nM | 20 nM | 9 nM
28 | FC(F)c1nc2ccccc2n1-c1cc(N2CCOCC2)nc(NCC2CCN([C@H]3CC[C@@H](F)CC3)CC2)n1 [Example 43-2, 4-[2-(difluoromethyl)-1H-benzimidazol-1-yl]-N-{[1-(cis-4-fluorocyclohexyl)piperidin-4-yl]methyl}-6-(morpholin-4-yl)pyrimidin-2-amine dihydrochloride] | 8000 nM | 8.6 nM | 3.1 nM
29 | FC(F)c1nc2ccccc2n1-c1cc(N2CCOCC2)nc(NCC2CCN(c3ccccc3)CC2)n1 [Example 44, 4-[2-(difluoromethyl)-1H-benzimidazol-1-yl]-6-(morpholin-4-yl)-N-[(1-phenylpiperidin-4-yl)methyl]pyrimidin-2-amine dihydrochloride] | 5000 nM | 14 nM | –
30 | CN(C)CCN1CC[C@H](Nc2nc(N3CCOCC3)cc(-n3c(C(F)F)nc4ccccc43)n2)C1 [Example 45, 4-[2-(difluoromethyl)-1H-benzimidazol-1-yl]-N-{(3S)-1-[2-(dimethylamino)ethyl]pyrrolidin-3-yl}-6-morpholin-4-ylpyrimidin-2-amine dihydrochloride] | 6800 nM | 56 nM | –
31 | CN(C)CC(=O)N1CCC(CNc2nc(N3CCOCC3)nc(-n3c(C(F)F)nc4ccccc43)n2)CC1 [Example 67] | 990 nM | 47 nM | –
32 | CN(C)CC(=O)N1CC(Nc2nc(N3CCOCC3)cc(-n3c(C(F)F)nc4ccccc43)n2)C1 [Example 69] | – | 22 nM | –
33 | Fc1ccc(N2CCC(CNc3nc(N4CCOCC4)cc(-n4c(C(F)F)nc5ccccc54)n3)CC2)cc1 [Example 75] | 5400 nM | 25 nM | –
34 | Fc1ccccc1N1CCC(CNc2nc(N3CCOCC3)cc(-n3c(C(F)F)nc4ccccc43)n2)CC1 [Example 77] | 5400 nM | 18 nM | –
35 | COc1ccc(N2CCC(CNc3nc(N4CCOCC4)cc(-n4c(C(F)F)nc5ccccc54)n3)CC2)cc1 [Example 78] | 2900 nM | 8.5 nM | –
36 | CN(C)CC(=O)N[C@H]1CCC[C@H](Nc2cc(-n3c(C(F)F)nc4ccccc43)nc(N3CCOCC3)n2)C1 [Example 100] | > 3000 nM | 5.7 nM | –
37 | FC(F)c1nc2ccccc2n1-c1cc(N2CCOCC2)nc(NCC23CCC(N4CCOCC4)(CC2)CC3)n1 [Example 120] | 6400 nM | 27 nM | –
38 | FC(F)c1nc2ccccc2n1-c1cc(N[C@H]2CCC[C@@H](N3CCOCC3)C2)nc(N2CCOCC2)n1 [Example 123] | > 3000 nM | 4.5 nM | –
39 | O=C(CNCC1CC1)N[C@H]1CC[C@H](Oc2cc(-n3c(C(F)F)nc4ccccc43)nc(N3CCOCC3)n2)CC1 [Example 133] | 5900 nM | 5.2 nM | –
40 | C[C@@H]1C[C@H](N2CCC(CNc3nc(N4CCOCC4)cc(-n4c(C(F)F)nc5ccccc54)n3)CC2)C[C@H](C)O1 [Example 194] | 3300 nM | 5.8 nM | –
41 | COC(=O)N[C@@H]1CCN([C@H]2CC[C@H](Nc3cc(-n4c(C(F)F)nc5ccccc54)nc(N4CCOCC4)n3)CC2)C1=O [Example 371] | 5000 nM | 35 nM | –
